Reference: patent US20180369186A1, “METHOD FOR MODULATING AUTOPHAGY AND APPLICATIONS THEREOF” (JAWAHARLAL NEHRU CENTRE FOR ADVANCED SCIENTIFIC RESEARCH, priority 2015, published 2018)

Experiments:
[1] = system: lysosome; experiment: Lysosomal function (lysotracker, LAMP1) in HeLa cells; assay type: cell-based, human
[2] = system: LC3B-II; experiment: LC3 processing assay in HeLa cells; assay type: cell-based, human
Description: For EGFP-α-synuclein degradation assay, equal numbers of sub-confluent SH-SY5Y cells are seeded in 6 well dishes and allowed to attach for 24 h. Cells are transfected with EGFP-α-synuclein plasmid using Lipofectamine 2000 (Life technologies) and allowed to express for 24 h.
After treatments, cells are collected in Laemmli buffer to perform LC3 processing assay, P70S6K, GSK3β and 4E-BP1 immunoblotting. To validate EGFP-α-synuclein degradation by 6-Bio, treated cells are scraped and collected in growth medium. After washing with phosphate buffer, pellets are lysed in Laemmli buffer and boiled for 10 min.
Samples are electrophoresed on SDS-PAGE (8-15%) and then transferred onto PVDF (Bio-Rad) membrane using Transblot turbo (Bio-Rad). Transferred blots are stained with Ponceau S, probed with appropriate primary antibodies overnight and subsequently horseradish peroxidase conjugated secondary antibody. Signals are developed using enhanced chemiluminescence substrate (Clarity, Bio-Rad), imaged using a gel documentation system (G-Box, Syngene) and bands are quantified using image software (NIH). (FIGS. 4F and 5A)

[3] = system: Pot1-GFP (peroxisomes); experiment: Pot1-GFP pexophagy assay; assay type: cell-based, S. cerevisiae
Description: Pot1-GFP positive strains are allowed to grow till the A600 reached 0.8-1 in YPD. Peroxisome biogenesis is induced by growing these cells in oleate medium (0.1% oleate, 0.5% Tween-40, 0.25% yeast extract, 0.5% peptone, and 5 mM phosphate buffer) for 12hours. Cells are harvested, washed twice to remove traces of oleate and transferred to starvation medium without nitrogen, at inoculum density A600 3, to induce pexophagy. Cells are collected at various time intervals after pexophagy induction and processed by TCA method.
Pot1-GFP positive strains are allowed to grow in yeast extract peptone dextrose (YPD) (2% dextrose, 2% peptone and 1% yeast extract) till the Absorbance at 600 nm reaches 0.6-0.8. Peroxisome biogenesis is induced by growing these cells in YPG medium (1% yeast extract, 2% peptone, 3% glycerol) for 12 hours.
Cells are harvested, washed twice to remove traces of oleate and transferred to starvation medium with and without Acacetin, at. inoculum density Absorbance at 600 nm 3/ml, to induce pexophagy. Cells are collected at various time intervals after pexophagy induction and processed by TCA precipitation.

[4] = system: MAP1LC3B; experiment: MAP1LC3B conversion assay in HeLa cells; assay type: cell-based, human
Description: Total cell lysates are electrophoresed on different 1 percentages of SDS-PAGE based on the desired protein size and transferred onto PVDF membrane at constant current of 2 Ampere for 30 minutes (Transblot turbo, Bio-Rad Inc, USA). Transfer is confirmed by Ponceau S staining of blot and the blots scanned are used as loading controls. Blots are incubated overnight with 5% skim milk in primary antibody (Anti-GFP, Roche #11814460001, Anti-MAP1LC3B, CST #L7543). Secondary antibody used at 1:10.000 is goat anti-mouse (Bio-7 Rad #172-1011) or goat anti-rabbit antibody (Bio-Rad #172-1019) conjugated to HRP. Blots are developed by using ECL substrate (Thermo Scientific #34087 or Bio-Rad #170-5061) and images captured using auto capture program in Syngene G-Box, UK. image J (NIH) are used for quantitation of band intensities.
For mammalian cells, following appropriate treatments, cells are washed with ice cold PBS. Cells are then lysed in 100 μl of sample buffer (10% w/v SDS, 10 mM DTT, 20% v/v glycerol, 0.2 Tris-HCL pH 6.8, 0.05% w/v bromophenol blue) and then collected using a rubber cell scraper. The lysates are boiled at 99° C. for 15 minutes and stored at −20° C.

[5] = system: p62; experiment: p62 co-localization with mRFP-MAP1LC3B in HeLa cells; assay type: cell-based, human
Description: Appropriate number of cells are plated on top of coverslips placed in 65 mm cell culture dishes for transfection. Transfected cells are divided into different treatment groups. Post treatment, cells are washed with PBS and fixed in 4% paraformaldehyde and permeabilized using 0.25% Triton X-100, Overnight incubation with Anti-p62/SQSTM1 (rabbit polyclonal, #PM045), Anti-EEA1 (rabbit polyclonal, CST #3288) is done at 4° C. Excess antibody is washed with PBS and coverslips are incubated with Atto-633 (goat anti-rabbit IgG, Sigma #41176). The coverslips are mounted with […] antifade reagent (H-1000/H-1200, Vector laboratories). Imaging for HeLa cells is carried out using Delta vision microscope (Olympus 60×/1.42, Plan ApoN, excitation and emission filter Cy5, FITC and TRITC, polychroic Quad).
ImageJ software (NIH) is used to calculate the mean intensity. Images are opened using the split channel plugin. Co-localization plugin in the analysis tools is used to obtain the colocalized area between two channels as a separate window. The intensity is calculated using the measure plugin in analysis tools.

[6] = nutrient-rich and starvation conditions

| Structure (SMILES) | LAMP1 positive vesicle intensities and distribution [1] | lysotracker staining (lysosome acidification) ([1]; 2 h) | LC3-II levels ([2]; 2 h) | LC3B-II accumulated in presence of E64D and Pepstatin A ([2]; with lysosomal protease inhibitors, vs 6-Bio only) | degradation of peroxisomes (Pot1-GFP) ([3]; starvation) | localisation of peroxisomes (fluorescence microscopy) ([3]; starvation, 25 μM Bay11, 50 μM ZPCK) | free GFP release from Pot1-GFP ([3]; wild type cells, up to 6 hours of starvation) | MAP1LC3B-II/MAP1LC3B-I and MAP1LC3B-II/TUBB ratios, prolonged treatment ([4]; 12 hours) | MAP1LC3B-II/TUBB ratio with BFA (autophagosome synthesis) ([4]; in the presence of BFA) | MAP1LC3B-II/MAP1LC3B-I ratio [4, 6] | MAP1LC3B-II/TUBB ratio [4, 6] | p62 accumulation relative to mRFP-MAP1LC3B-positive compartments [5] |
| --- | --- | --- | --- | --- | --- | --- | --- | --- | --- | --- | --- | --- |
| O=C1Nc2cc(Br)ccc2/C1=C1/Nc2ccccc2/C1=N\O [6-Bio, (2′Z,3′E)-6-Bromoindirubin-3′-oxime] | unaltered | no change in lysosome acidification | increases LC3-II | significantly more |  |  |  |  |  |  |  |  |
| Cc1ccc(S(=O)(=O)/C=C/C#N)cc1 [Bay11, 3-[(4-methylphenyl)sulfonyl]-(2E)-propenenitrile] |  |  |  |  | delay the degradation of peroxisomes | accumulate outside the vacuoles | No free GFP release | significant reduction | reduces MAP1LC3B12 II/TUBB ratio | decreases MAP1LC3B-II/MAP1LC3B-I ratio | no significant changes | outside |
